Data set [1] concerns AC29 cells that do not express MTP but stably express ACAT1 or ACAT2. The data set can be described thus: Cellular cholesteryl ester synthesis in AC29 cells that do not express MTP. Type of data set: cell-based. As to conditions: AC29 cells stably expressing ACAT1 or ACAT2. On the procedure: Next, the effect of these inhibitors on cellular cholesteryl ester synthesis was examined. […] In these cells, MTP inhibitor BMS 197636 had no effect on cellular cholesteryl ester synthesis (FIG. 9, J and K). However, incubation of these cells with ACAT inhibitor 148817 reduced radio-labeled cholesteryl esters by 83-87% (FIG. 9, J, K).

In the next data set the test system is Caco-2 cells. The experiment in a line: Caco-2 cells treated with MTP and ACAT antagonists, alone or in combination. Type of data set: cell-based. The arrangement: inhibition of cellular esterification of [3H] cholesterol: dose or concentration left out as unconfirmed. On the procedure: Thus, it was hypothesized that MTP (BMS 197636) and ACAT (1 488 17) antagonists would inhibit cellular esterification by independent mechanisms and their effect would be additive. To test this hypothesis, Caco-2 cells were treated with different amounts of these inhibitors, alone or in combination, and the inhibition was compared with cells that were not exposed to any inhibitors (FIG. 9, L-N). Increasing concentrations of BMS 197636 decreased apoB secretion (FIG. 9, L). In contrast, ACAT inhibitor had no effect on apoB secretion. […] ApoAI secretion was resistant to both the inhibitors (FIG. 9, M). […] These inhibitors in combination reduced cholesteryl ester synthesis by 45 +/−4% (FIG. 9, N). Thus, MTP and ACAT act in tandem and facilitate cellular cholesteryl esterification.

Data set [2] can be described thus: Effect of efflux enhancer and cholesterol biosynthesis inhibitor on plasma lipids and liver function enzymes in PBS and pIpC injected animals. The note with it: 50 mg/Kg oral gavage every day for 2 weeks; for plasma cholesterol levels / plasma triglyceride levels: MTP gene deleted (pIpC injected) mice. Type of data set: in vivo, mice. The source says: In this Example, blood was collected from tail vein of animals on day 1 of the experiment and used to measure plasma lipid and liver function enzyme levels (Day 1, “Control”). Conditional MTP deletion was achieved by injecting pIpC three times in […] mice on alternate days. Control group mice (n=2) received either PBS (open bars) or pIpC (closed bars) injections. […] On day 8, blood was again collected to measure changes in plasma lipid and liver function enzyme levels. Mice were sacrificed on day 16 and plasma samples were then assayed for total cholesterol (A), triglyceride (B), ALT (C) and AST (D) levels. Each measurement was performed in triplicate. The asterisks show statistically significant differences between PBS and pIpC injected mice. (*, p<0.05, **, p<0.01, ***, p<0.001.)

The nature of data set [3]: Effect of efflux enhancer and cholesterol biosynthesis inhibitor on hepatic mRNA, MTP activity and lipid levels in PBS and pIpC injected animals. Type of data set: in vivo. The note with it: liver of drug administered pIpC injected mice. The source says: In this Example, total RNA was isolated from the liver of drug administered PBS and pIpC injected mice and used for quantitative RT-PCR of HMG-CoA reductase (FIG. 5, Panel A), ABCA1 (FIG. 5, Panel B), MTP (FIG. 5, Panel C) as well as ARPp0 mRNA. The ratio of candidate gene to ARPp0 in one PBS injected mice was used for normalization. Liver tissues were also used to measure MTP activity (FIG. 5, Panel D). In addition, triglyceride (FIG. 5, Panel E), total (FIG. 5, Panel F), Free (FIG. 5, Panel G) and Esterified (FIG. 5, Panel H) cholesterol levels were measured. (*, p<0.05, **, p<0.01, ***, p<0.001.)

`CCCNC(=O)C1(CCCCN2CCC(N3Cc4ccccc4C3=O)CC2)c2ccccc2-c2ccccc21` [BMS 197636]: the “cellular cholesteryl ester synthesis” value in data set [1] is on record as “no effect”. Besides, in the data set with Caco-2 cells, the ApoAI secretion entry is on record as “resistant”. In addition, the apoB secretion result in the data set with Caco-2 cells (increasing concentrations, inhibitor alone) was “decreased”. For the same compound, the “inhibition of cellular esterification of [3H] cholesterol” value in the data set with Caco-2 cells (individually) is on record as 25 +/−2%.
Take `O=S(=O)(c1ccccc1)N(CC(F)(F)F)c1ccc(C(O)(C(F)(F)F)C(F)(F)F)cc1` [T0901317]: in data set [2], the plasma cholesterol levels result is reported as “not significantly altered” and the plasma triglyceride levels result is reported as “not significantly altered”. The “increases in hepatic free cholesterol levels in MTP gene deleted animals” value in data set [3] is recorded as “reduced”.
For the compound `CCCCCCCCCCCCCCCC(=O)O[C@H]1CC[C@@]2(C)C(=CC[C@H]3[C@@H]4CC[C@H]([C@H](C)CCCC(C)C)[C@@]4(C)CC[C@@H]32)C1` [cholesteryl palmitate], the “concentration up to which microsomes are enriched with cholesterol (saturation thereafter)” value with liver microsomes (liver microsomes incubated 30 min, centrifuged) is listed as “approximately 1.25 μM”. Also, the “inhibition of cholesteryl ester synthesis” value in the data set on liver microsomes (liver microsomes, 0.5 μM cholesteryl palmitate) was 32%.
As to `CC[C@H](C)C(=O)O[C@H]1C[C@@H](C)C=C2C=C[C@H](C)[C@H](CC[C@@H]3C[C@@H](O)CC(=O)O3)[C@H]21` [lovastatin, Lovastatin], in data set [2], the plasma cholesterol levels entry is reported as “not significantly altered” and the plasma triglyceride levels result is reported as “not significantly altered”. For the same compound, in data set [2] (pIpC injected mice), the “increase in plasma ALT levels due to MTP gene deletion” value is recorded as “not seen” and the “increase in plasma AST levels due to MTP gene deletion” value is on record as “not seen”. Besides, in data set [3], the “increases in hepatic free cholesterol levels in MTP gene deleted animals” value is “reduced”.

Source of the values: patent US20090197947A1, “MEDICAMENTS AND METHODS FOR LOWERING PLASMA LIPID LEVELS AND SCREENING DRUGS” (The Research Foundation of State University of New York, priority 2008, published 2009).
